Results: article PMC4561207 (Child's nervous system : ChNS : official journal of the …, 2015)
“Also recorded” adds a separate entry of the source.

Experiment: Toxicities attributed to Cediranib
Format: in vivo, human

## COc1cc2c(Oc3ccc4[nH]c(C)cc4c3F)ncnc2cc1OCCCN1CCCC1 [cediranib, Cediranib]
Grade 3 TOX
  Eye disorders - Other, specify, events (patients): 1(1)
  Fatigue, events (patients): 2(2)
  Headache, events (patients): 2(2)
  Hydrocephalus, events (patients): 1(1)
  Hypertension, events (patients): 10(10)
  Hypertriglyceridemia, events (patients): 1(1)
  Hypokalemia, events (patients): 2(1)
  Hyponatremia, events (patients): 3(3)
  Lipase increased, events (patients): 1(1)
  Lymphocyte count decreased, events (patients): 5(3)
  Nausea, events (patients): 1(1)
  Neutrophil count decreased, events (patients): 2(2)
  Palmar-plantar erythrodysesthesia syndrome, events (patients): 3(3)
  Proteinuria, events (patients): 3(3)
  Reversible posterior leukoencephalopathy syndrome, events (patients): 1(1)
  Vomiting, events (patients): 1(1)
  Weight loss, events (patients): 1(1)
  White blood cell decreased, events (patients): 1(1)
Grade 4 TOX
  Alanine aminotransferase increased, events (patients): 1(1)
  Aspartate aminotransferase increased, events (patients): 1(1)
  Hypothyroidism, events (patients): 1(1)
  Lymphocyte count decreased, events (patients): 1(1)
  Nervous system disorders - Other, specify, events (patients): 1(1)
  Papilledema, events (patients): 1(1)
human, in vivo
  fatigue, number of patients: 16
  left ventricular dysfunction: No left ventricular dysfunction was identified in any of the patients; also recorded: No dose-limiting decreases in left ventricular function were observed
  palmar-plantar erythrodysesthesia syndrome, number of patients: 7
Of 48 eligible patients
  hypertension, percentage of patients: 77%
  hypothyroidism, number of patients: 15
  hypothyroidism, percentage of patients: 31%
  proteinuria, number of patients: 20
  proteinuria, percentage of patients: 42%
Of 48 eligible patients, all dose levels
  hypertension, number of patients: 37
Of thirty-two patients with diarrhea
  diarrhea grade 3, number of patients: 2
Short duration of drug exposure in the majority of patients
  effect on bone growth: bone-related AEs: no bone-related AEs were identified
Total TOX
  Abdominal pain, events (patients): 10(10)
  Acidosis, events (patients): 1(1)
  Alanine aminotransferase increased, events (patients): 65(28)
  Alkaline phosphatase increased, events (patients): 2(2)
  Anal mucositis, events (patients): 1(1)
  Anal pain, events (patients): 1(1)
  Anemia, events (patients): 3(3)
  Anorexia, events (patients): 13(10)
  Arthralgia, events (patients): 1(1)
  Aspartate aminotransferase increased, events (patients): 43(21)
  Back pain, events (patients): 2(2)
  Blood bilirubin increased, events (patients): 13(7)
  Blurred vision, events (patients): 1(1)
  Bone pain, events (patients): 2(1)
  Capillary leak syndrome, events (patients): 1(1)
  Cardiac troponin I increased, events (patients): 1(1)
  Chest wall pain, events (patients): 1(1)
  Cholesterol high, events (patients): 1(1)
  Chronic kidney disease, events (patients): 1(1)
  Confusion, events (patients): 1(1)
  Constipation, events (patients): 6(2)
  Cough, events (patients): 1(1)
  Creatinine increased, events (patients): 1(1)
  Dehydration, events (patients): 4(4)
  Depressed level of consciousness, events (patients): 1(1)
  Depression, events (patients): 1(1)
  Diarrhea, events (patients): 61(32)
  Dizziness, events (patients): 5(3)
  Dry mouth, events (patients): 1(1)
  Dry skin, events (patients): 1(1)
  Dyspepsia, events (patients): 3(3)
  Dysphasia, events (patients): 1(1)
  Edema face, events (patients): 1(1)
  Edema limbs, events (patients): 1(1)
  Endocrine disorders - Other, specify, events (patients): 1(1)
  Enterocolitis, events (patients): 1(1)
  Epistaxis, events (patients): 5(4)
  Eye disorders - Other, specify, events (patients): 1(1)
  Fatigue, events (patients): 18(16)
  Fecal incontinence, events (patients): 1(1)
  Fever, events (patients): 1(1)
  Flushing, events (patients): 3(1)
  GGT increased, events (patients): 1(1)
  Gastritis, events (patients): 1(1)
  Gastrointestinal disorders - Other, specify, events (patients): 2(2)
  Headache, events (patients): 10(7)
  Hematuria, events (patients): 5(3)
  Hemoglobin increased, events (patients): 6(2)
  Hoarseness, events (patients): 1(1)
  Hydrocephalus, events (patients): 1(1)
  Hypercalcemia, events (patients): 3(2)
  Hyperglycemia, events (patients): 9(8)
  Hyperkalemia, events (patients): 2(2)
  Hypermagnesemia, events (patients): 7(5)
  Hypernatremia, events (patients): 5(4)
  Hypertension, events (patients): 57(37)
  Hyperthyroidism, events (patients): 2(2)
  Hypertriglyceridemia, events (patients): 1(1)
  Hypoalbuminemia, events (patients): 26(13)
  Hypocalcemia, events (patients): 17(8)
  Hypoglycemia, events (patients): 3(3)
  Hypokalemia, events (patients): 16(12)
  Hypomagnesemia, events (patients): 7(5)
  Hyponatremia, events (patients): 12(6)
  Hypophosphatemia, events (patients): 14(8)
  Hypothyroidism, events (patients): 21(15)
  Hypoxia, events (patients): 1(1)
  INR increased, events (patients): 1(1)
  Intracranial hemorrhage, events (patients): 4(4)
  Investigations - Other, specify, events (patients): 2(2)
  Joint effusion, events (patients): 1(1)
  Leukoencephalopathy, events (patients): 1(1)
  Lipase increased, events (patients): 2(1)
  Lymphocyte count decreased, events (patients): 24(10)
  Malaise, events (patients): 2(1)
  Mucositis oral, events (patients): 3(3)
  Myalgia, events (patients): 2(2)
  Nausea, events (patients): 19(10)
  Nervous system disorders - Other, specify, events (patients): 1(1)
  Neutrophil count decreased, events (patients): 20(10)
  Non-cardiac chest pain, events (patients): 1(1)
  Oral pain, events (patients): 2(2)
  Pain in extremity, events (patients): 4(4)
  Pain, events (patients): 1(1)
  Palmar-plantar erythrodysesthesia syndrome, events (patients): 17(7)
  Papilledema, events (patients): 1(1)
  Pericardial effusion, events (patients): 1(1)
  Peripheral motor neuropathy, events (patients): 1(1)
  Platelet count decreased, events (patients): 25(18)
  Pleural effusion, events (patients): 1(1)
  Proteinuria, events (patients): 36(20)
  Rash acneiform, events (patients): 2(2)
  Rash maculo-papular, events (patients): 5(5)
  Rectal pain, events (patients): 1(1)
  Renal and urinary disorders - Other, specify, events (patients): 1(1)
  Respiratory, thoracic and mediastinal disorders - Other, specify, events (patients): 1(1)
  Reversible posterior leukoencephalopathy syndrome, events (patients): 2(1)
  Seizure, events (patients): 1(1)
  Serum amylase increased, events (patients): 1(1)
  Skin and subcutaneous tissue disorders - Other, specify, events (patients): 1(1)
  Skin ulceration, events (patients): 1(1)
  Stomach pain, events (patients): 2(2)
  Urinary frequency, events (patients): 1(1)
  Urinary retention, events (patients): 1(1)
  Vascular disorders - Other, specify, events (patients): 2(2)
  Voice alteration, events (patients): 2(2)
  Vomiting, events (patients): 27(13)
  Weight loss, events (patients): 3(3)
  White blood cell decreased, events (patients): 18(11)
